Measurements published in patent publication US20200370087A1, “METHOD FOR DETERMINING MICROBIAL SUSCEPTIBILITY TO ANTIBIOTIC AGENTS” (Ascilion AB, priority 2017, published 2020).

System: E. faecium
Experiment: Qualitative glucose consumption test, directly from positive BC-bottles (Example 2, Table 7)
Type: cell-based
Conditions: E. faecium from positive BC-bottle, antibiotic 256 μg/mL
Method: With slightly lower microbe concentrations e.g. directly from positive BC-bottles (^˜10^9 CFU/ml) the results are shown at least within 2 hours, where E. coli ATCC 25922 is classified as susceptible and E. faecium is non-susceptible.

gentamicin
glucose concentration, t = 0 (t = 0): 144 | glucose concentration, t = 45 (t = 45): 105 | glucose concentration, t = 60 (t = 60): 77 | glucose concentration, t = 75 (t = 75): 47 | qualitative susceptibility score (within 2 hours): non-susceptible
